Patent publication US20050221422A1, “Novel galactose transferases, peptides thereof and nucleic acid encoding the same” (priority 2002, published 2005)
Ends that are not written are not given here. T(GalNAc) = N-acetylgalactosamine-glycosylated threonine

Columns and labels:
C1Gal-T2 = experiment: Screening for acceptor substrate of C1Gal-T2 (UDP-[14C]-Gal transfer, TLC, LSC-C1Gal-T2 cell extract); assay type: biochemical, human; settings: LSC-C1Gal-T2 cell extract as enzyme source; acceptor substrate 10 nmol; 37° C. for two hours
Experimental: The reaction system below was used to investigate C2 acceptor substrates. To investigate whether pNp-α-GalNAc or pNp-β-GalNAc (both from Sigma) functioned as acceptors, each was used as an “acceptor substrate” in the following reaction solution:
The reaction solution (the parentheses show final concentrations) comprised acceptor substrate (10 nmol), HEPES buffer (pH 7.4) (14 mM), MnCl2 (12.5 mM), UDP-Gal (250 μM), and UDP-[^14C]-Gal (175 nCi). 5 μl of enzyme solution was added to this reaction solution, followed by the addition of H2O to a total volume of 20 μl. The enzyme solution was prepared by suspending cells (5×10^6 cells) in 50 ml of cell lysing buffer (HEPES buffer (pH 7.4) (20 mM), NaCl (154 mM) and TritonX-100 (1%)), incubating at 4° C. for 15 minutes in a water bath type ultrasonic homogenizer, centrifuging, and then obtaining the supernatant for the enzyme solution. The aforementioned reaction mixture was reacted at 37° C. for two hours. Following completion of the reaction, 200 μl of H2O was added to the mixture, which was gently centrifuged to obtain the supernatant. […] After drying the plate, the amount of radioactivity taken up by the product was measured using the Bio Image Analyzer FLA3000 (Fuji Photo Film).

C1Gal-T3 = molecular target: T1, C1Gal-T3 (Homo sapiens, UniProt P0DN25); experiment: Galactose transferring activity of C1Gal-T3 recombinant enzyme on N-acetylgalactosaminyl peptides; assay type: biochemical; settings: C1Gal-T3 recombinant enzyme expressed in COS-1 cells as enzyme source
T1 construct: a carboxyl terminal region (enzyme activity region) minus the transmembrane region at the amino terminus; preprotrypsin secretion signal (N); made in house; host or cells: COS-1 cells, transient transfection with pFLAG-C1Gal-T3; purified from culture supernatant on anti-FLAG M1 agarose
Experimental: The reaction solution (parentheses indicate final concentrations) comprised acceptor substrate (5 pmol), MES buffer (pH 6.5) (100 mM), MnCl2 (20 mM), ATP (2 mM), and UDP-Gal (0.5 mM). 5 μl of […] enzyme source was added to this reaction solution, which was then brought to a total volume of 20 μl by adding H2O.
The above reaction mixture was reacted at 37° C. for eight hours. After completion of the reaction, 60 μl of H2O was added, and the mixture was gently centrifuged to acquire the supernatant. This supernatant was purified through an Ultra Free MC Column (Millipore), and 30 μl of thus-purified solution was analyzed using high-performance liquid chromatography (HPLC). CAPCELL PAK C18 UG120 (Shiseido) was used as the column, 0.1% trifluoroacetic acid was used as the separation buffer, and the elution was carried out over an acetonitrile concentration gradient of 15-30%. The flow rate was 1 ml/minute.
Galactose transferring activity was measured using the C1Gal-T3 recombinant enzyme expressed in COS-1 cells as an enzyme source, and using the N-acetylgalactosaminyl peptides used in Example 5 as acceptor substrates.

T1 sequence (P0DN25 30-315 limits assumed): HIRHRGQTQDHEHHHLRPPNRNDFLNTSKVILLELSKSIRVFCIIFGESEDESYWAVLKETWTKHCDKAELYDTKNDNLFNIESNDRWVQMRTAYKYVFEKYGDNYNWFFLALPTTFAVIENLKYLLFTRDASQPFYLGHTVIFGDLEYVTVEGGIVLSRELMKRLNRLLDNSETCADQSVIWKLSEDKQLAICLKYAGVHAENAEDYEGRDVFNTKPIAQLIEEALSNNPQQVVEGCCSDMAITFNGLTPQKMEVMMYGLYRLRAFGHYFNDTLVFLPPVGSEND

| galactose transferring activity (C1Gal-T3) | Compound | reaction as acceptor substrate (galactose transfer from UDP-Gal) (C1Gal-T2) |
| --- | --- | --- |
| – | CC(=O)N[C@H]1[C@@H](Oc2ccc([N+](=O)[O-])cc2)O[C@H](CO)[C@H](O)[C@@H]1O [pNp-α-GalNAc] | reacted strongly |
| – | CC(=O)N[C@H]1[C@H](Oc2ccc([N+](=O)[O-])cc2)O[C@H](CO)[C@H](O)[C@@H]1O [pNp-β-GalNAc] | did not react |
| could be confirmed | VPST(GalNAc)PPTPSPSTPPTPSPS ({Val-Pro-Ser-T(GalNAc)}-PPTPSPSTPPTPSPS) [4-GalNAc-HP, human IgA1 hinge peptide with GalNAc on the 4th residue] | – |
